Where “and” joins values, the source holds several entries; their conditions need not be identical. Equal entries are not always repeated. Entries after “also recorded” stand apart in the source; their conditions may differ.

One experiment concerns claudin-14 mRNA. Kind of experiment: claudin-14 mRNA levels in mouse kidney after systemic treatment (real-time PCR). It is filed as in vivo. The note with it: for claudin-14 mRNA, change: 30 mg/kg BW−1 per day for 6 days, 24 hrs following the last treatment; for claudin-14 mRNA relative to control level: by 8 hrs and through to 12 hrs. Here is the method: NPS2143 and cinacalcet (Table 1) were dissolved in vehicle—20% (w/v) (2-Hydroxypropyl)-β-cyclodextrin solution and fed to mice with gavage syringe. Cyclosporin-A (Sandimmune; Table 1) was diluted in 0.9% saline and I.P. injected to animals. Control animals received vehicle injection (13% wiv Cremophor EL and 32.9% ethanol). For dietary Ca^2+ manipulation, animals were fed with the following diets for six consecutive days: basal diet: 0.61% Ca^2+ (TestDiet #5755); low Ca^2+ diet: 0 Ca^++ (TestDiet #5855); high Ca^2+ diet: 5% Ca^2+ (TestDiet #5AVB). All animals had free access to water and were housed under a 12 hr light cycle. Blood samples were taken by cardiac puncture rapidly after initiation of terminal anesthesia and centrifuged at 4° C. for 10 min. Kidney were dissected out and immediately frozen at −80° C.
Total RNA including microRNA was extracted using Trizol (Invitrogen). Cellular mRNA was reverse transcribed using the Superscript-III kit (Invitrogen), followed by real-time PCR amplification using SYBR Green PCR Master Mix (Bio-Rad) and Eppendorf Realplex2S system. The design of claudin-14 primers was described above. The design of pri-miRNA primers was according to Ma et al., (2010). Results were expressed as 2^−ΔCt values with ΔCT=Ctgene−Ctβ-actin.
SAHA and TsA were dissolved in 5% (w/v) ethanol/0.9% saline solution and fed to mice with gavage syringe. Furosemide was dissolved in 50% (w/v) DMSO/0.9% saline solution and I.P. injected to animals. All animals had free access to water and were housed under a 12 hr light cycle. Blood samples were taken by cardiac puncture rapidly after initiation of terminal anesthesia and centrifuged at 4° C. for 10 min. Kidney were dissected out and immediately frozen at −80° C.
Total RNA including microRNA was extracted using Trizol (Invitrogen). Cellular mRNA was reverse transcribed using the Superscript-III kit (Invitrogen), followed by real-time PCR amplification using SYBR Green PCR Master Mix (Bio-Rad) and Eppendorf Realplex2S system. The design of claudin-14 primers was described before by Gong et al., 2012. The design of pri-miRNA primers and ChIP primers was according to Gong et al., 2013. Results were expressed as 2^−ΔCt values with ΔCT=Ctgene−Ctβ-actin. […]
NPS2143 and cinacalcet (Table 9) were dissolved in vehicle −20% (w/v) (2-Hydroxypropyl)-β-cyclodextrin solution and fed to mice with gavage syringe. Cyclosporin-A (Sandimmune; Table 9) was diluted in 0.9% saline and I.P. injected to animals. Control animals received CNI vehicle injection (13% wiv Cremophor EL and 32.9% ethanol). FK506 was dissolved in CNI vehicle, diluted in 0.9% saline and I.P. injected to animals. For dietary Ca^+ manipulation, animals were fed with the following diets for six consecutive days: basal diet: 0.610% Ca^++ (TestDiet #5755); low Ca^++ diet: 0 Ca^++ (TestDiet #5855); high Ca^++ diet: 5% Ca^+ (TestDiet #5AVB). All animals had free access to water and were housed under a 12 hr light cycle. Blood samples were taken by cardiac puncture rapidly after initiation of terminal anesthesia and centrifuged at 4° C. for 10 min. Kidney were dissected out and immediately frozen at −80° C.
Total RNA including microRNA was extracted using Trizol (Invitrogen). Cellular mRNA was reverse transcribed using the Superscript-III kit (Invitrogen), followed by real-time PCR amplification using SYBR Green PCR Master Mix (Bio-Rad) and Eppendorf Realplex2S system. The design of claudin-14 primers was described before by Gong. Y., et al., 2012. The design of pri-miRNA primers was according to Ma. L., et al., 2010. Results were expressed as 2^−ΔCt values with ΔCT=Ctgene−Ctβ-actin.
(In qPCR the cycle at which signal appears reflects the starting amount.)

In another experiment the test system is miR-9-1 promoter. Put plainly: ChIP over miR-9-1 promoter in TALH cells of treated mice. It counts as in vivo, mouse. The following applies: for fold enrichment of NFATc1 over miR-9-1 promoter region: versus vehicle. The method, then:
(§1) Freshly isolated TALH cells or primary TALH cell cultures were cross-linked in 1% paraformaldehyde (pH7.0) for 10 min at room temperature. The cross-linked cells were lysed following to instruction of MAGnify ChIP system (Invitrogen). Chromatin was sonicated into 500 bp fragments with Bioruptor UCD-200 (High power, 15 cycles of 30 seconds ON, 30 seconds OFF; Diagenode). Sheared chromatin was precipitated with antibody-bound Dynabeads (Invitrogen). Following reverse crosslink and DNA extraction, antibody-bound DNA was eluted and analyzed with real-time PCR. Two criteria for normalization were applied: fold enrichment over anti-IgG background signal and input control over chromatin input signal.
as §1, with “OFF,” for “OFF;”

Setting [1] is: TPTX mice, single dose 30 mg/kg BW−1, 2 hrs.
Setting [2] is: cyclosporine-A pre-treated animals, 30 mg/kg BW−1, 2 hrs.
Where [3] appears, read: second dose 30 mg/kg BW−1 at 12 hrs, measured at 14 hrs.
Where [4] appears, read: single oral dose 30 mg/kg BW−1, 30 mg/kg.

As for `CC(C)(Cc1ccc2ccccc2c1)NC[C@@H](O)COc1cccc(Cl)c1C#N` [NPS2143], the “claudin-14 mRNA levels, reduction (dose response)” value in the experiment with claudin-14 mRNA (15 mg/kg BW−1, 2 hrs) stood at 45%; with claudin-14 mRNA (30 mg/kg BW−1, 2 hrs), 82%; in the experiment with claudin-14 mRNA (45 mg/kg BW−1, 2 hrs) it was 89%. In addition, the “claudin-14 mRNA, change” value in the experiment with claudin-14 mRNA is on record as “Neither NPS2143 nor cinacalcet caused changes”. The “claudin-14 gene expression, downregulation” value in the experiment with claudin-14 mRNA (setting [1]) was 35%. In addition, the “claudin-14 mRNA levels, change” value in the experiment with claudin-14 mRNA (setting [2]) is “failed to elicit any significant change”. Also, the “claudin-14 mRNA levels, reduction” value with claudin-14 mRNA (setting [3]) amounted to 77%. In the experiment on claudin-14 mRNA (single oral dose 30 mg/kg BW−1, 2 hrs, versus vehicle), the “claudin-14 mRNA level, downregulation” value amounted to 80%. Besides, the “claudin-14 mRNA, percent of control level” value with claudin-14 mRNA (single oral dose 30 mg/kg BW−1, 4 hrs) stood at 78%. The “claudin-14 mRNA relative to control level” value with claudin-14 mRNA (setting [4]) was “completely recovered to its control level; also recorded: no significant change”. For the same compound, in the experiment on miR-9-1 promoter (30 mg/kg BW−1, 2 hrs, higher than vehicle level), the “H3K9 and H3K14 acetylation levels, miR-9-1 promoter region” value was 2.43 fold. Besides, the “fold enrichment of NFATc1 over miR-9-1 promoter region” value with miR-9-1 promoter (30 mg/kg BW−1, 2 hrs) is 3.55 fold.
Take `O=C(CCCCCCC(=O)Nc1ccccc1)NO` [SAHA, Suberanilohydroxamic acid]: the “CLDN14 mRNA, dose response” value with claudin-14 mRNA (5 mg/kg to 25 mg/kg, 4 hrs) is on record as “downregulation of CLDN14 at dosage as low as 5 mg/kg”. For the same compound, the “effects on CLDN14 mRNA in the kidney” value in the experiment on claudin-14 mRNA (25 mg/kg BW−1, 12 hrs) is listed as “dissipated”. In addition, in the experiment with claudin-14 mRNA (25 mg/kg BW−1, by 4 hrs and through to at least 8 hrs), the “reduction of CLDN14 expression in the kidney” value is reported as “persisted”. The “CLDN14 mRNA levels in the kidney, reduction” value in the experiment on claudin-14 mRNA (single dose 25 mg/kg BW−1, 2 hrs) is 56%. Moreover, in the experiment with miR-9-1 promoter (25 mg/kg BW−1, 4 hrs), the “H3K9 and H3K14 acetylation, miR-9-1 promoter, increase” value is 2.40 fold; the “NFAT binding to miR-9-1 promoter” value was “not affected”.
On to `C[C@@H](NCCCc1cccc(C(F)(F)F)c1)c1cccc2ccccc12` [cinacalcet], for which the “claudin-14 expression, induction (dose response)” value with claudin-14 mRNA (15 mg/kg BW−1, 2 hrs) is reported as 2.33 fold; with claudin-14 mRNA (30 mg/kg BW−1, 2 hrs) it was 3.17 fold; with claudin-14 mRNA (45 mg/kg BW−1, 2 hrs), 6.38 fold. Also, the “claudin-14 mRNA, change” value in the experiment on claudin-14 mRNA is on record as “Neither NPS2143 nor cinacalcet caused changes”. Besides, the “claudin-14 expression levels, upregulation” value in the experiment with claudin-14 mRNA (setting [1]) stood at 3.41 fold. Also, the “claudin-14 mRNA levels, increase” value is given as 1.73 fold in the experiment on claudin-14 mRNA (setting [2]) and 3.23 fold in the experiment with claudin-14 mRNA (setting [3]). In the experiment with claudin-14 mRNA (single oral dose 30 mg/kg BW−1, 2 hrs, intact mice, versus vehicle), the “claudin-14 mRNA level, upregulation” value is given as 3.3 fold. In addition, the “claudin-14 mRNA level, upregulation (ceiling)” value in the experiment on claudin-14 mRNA (single oral dose 30 mg/kg BW−1, 4 hrs, versus vehicle, 30 mg/kg) is 3.97 fold and 3.98 fold. The “claudin-14 mRNA relative to control level” value in the experiment on claudin-14 mRNA (setting [4]) is reported as “recovered to its control level; also recorded: no significant change”. Further, the “fold enrichment of NFATc1 over miR-9-1 promoter region” value with miR-9-1 promoter (30 mg/kg BW−1, 2 hrs) is “without significant effect”.
